Data taken from patent publication US12697326B2, “Methods of treating hepatic encephalopathy” (SALIX PHARMACEUTICALS, INC., priority 2008, dated 2026).
Where “and” joins values, the source holds several entries; their conditions need not be identical. Equal entries are not always repeated.

Legend:
[1] = test system: critical flicker frequency in subjects with HE; assay: Critical flicker frequency (CFF) test, change from baseline, first study; type: in vivo, human
Protocol: The critical flicker frequency (CFF) was assessed for each subject using a specialized CFF instrument. The CFF is the frequency at which the subject observes a constant light transition to a flickering light and is measured in Hertz (Hz). CFF is an objective assessment of mental status.
The CFF was measured on a continuous scale and was the mean of 8 separate fusion-to-flicker transition tests performed in rapid succession.
Mean values and mean changes from baseline in blood ammonia concentration and critical flicker frequency values were collected. Analyses of blood ammonia concentrations and critical flicker frequency values were based upon quantitative values (not qualitative grades). Treatment differences for mean change from baseline in these parameters was estimated using a mixed effects model with fixed effects for time and baseline value.
A critical flicker frequency (CFF) assessment, a recognized quantitative measure of CNS dysfunction, was an efficacy endpoint in the first study. CFF tests utilize the correlation between cerebral processing of oscillatory visual stimuli and CNS impairment due to increased HE severity.^10,11,12,13 This test identifies a frequency at which a flickering light is perceived as steady. A decline in this frequency has been associated with increasing severity of HE. Likewise, elevation in blood ammonia, another endpoint in the first study, is a quantitative assessment associated with the CNS effects underlying overt HE.

[2] = test system: breakthrough overt HE episode in subjects with HE; assay: Breakthrough overt HE episodes, second study (open-label treatment extension); type: in vivo, human
Protocol: Unlike the first study, subjects were not required to withdraw from the study after experiencing a breakthrough overt HE episode.
Conn scores and asterixis grades were assessed during the course of the study.
Therefore, the incidence of breakthrough overt HE over time during rifaximin therapy was evaluated. Table 24 presents breakthrough overt HE episodes by total number of HE episodes during the course of the study.

[3] = test system: hospitalization in subjects with HE; assay: Hospitalizations, second study; type: in vivo, human
Description: (§1) Normalizing for subject exposure, this represents a hospitalization rate of 0.60 event/PEY. A total of 59 were hospitalized due HE episodes (e.g., HE-caused). Normalizing for subject exposure, this represents an HE-caused hospitalization rate of 0.29 event/PEY. […] All subjects were capable of worsening over time, and 24/266 subjects (9.0%) did so by 1 or 2 grades.

[4] = test system: Conn score and asterixis grade in subjects with HE; assay: Changes from baseline in Conn scores and asterixis grades, second study; type: in vivo, human
Description: as §1
The last visit for the second study is the last visit recorded for the interim analysis.

[5] = test system: liver transplant patients with HE; assay: Chart review of 39 liver transplant patients with HE Conn scores of 2; type: in vivo, human; conditions: 24 lactulose, 15 rifaximin
clinical = conditions: human, in vivo
in vitro = conditions: human, in vivo
[6] = 550 mg BID, Baseline to Day 140
[7] = Continuing Rifaximin N = 70, second study
[8] = New Rifaximin N = 196, second study
[9] = Rifaximin N = 266 (all rifaximin), second study
[10] = first study placebo subjects crossed over to rifaximin in second study
[11] = second study, all rifaximin, up to 680 days
[12] = second study, continuing rifaximin group, up to 680 days
[13] = second study, new rifaximin group, up to 680 days

CO[C@H]1/C=C/O[C@@]2(C)Oc3c(C)c(O)c4c(O)c(c5c(nc6cc(C)ccn65)c4c3C2=O)NC(=O)/C(C)=C\C=C\[C@H](C)[C@H](O)[C@@H](C)[C@@H](O)[C@@H](C)[C@H](OC(C)=O)[C@@H]1C [Rifaximin]
Change from Baseline in Critical Flicker Frequency Test, Max [1, 6]: 12 Hz | Change from Baseline in Critical Flicker Frequency Test, Mean [1, 6]: 1.4 Hz | Change from Baseline in Critical Flicker Frequency Test, Median [1, 6]: 1.5 Hz | Change from Baseline in Critical Flicker Frequency Test, Min [1, 6]: −15 Hz | Change from Baseline in Critical Flicker Frequency Test, Max ([1]; 550 mg BID, Baseline to EOT): 11 Hz | Change from Baseline in Critical Flicker Frequency Test, Mean ([1]; 550 mg BID, Baseline to EOT): 0.9 Hz | Change from Baseline in Critical Flicker Frequency Test, Median ([1]; 550 mg BID, Baseline to EOT): 0.1 Hz | Change from Baseline in Critical Flicker Frequency Test, Min ([1]; 550 mg BID, Baseline to EOT): −14 Hz | Critical Flicker Frequency Test, Max ([1]; 550 mg BID, Day 140): 49 Hz | Critical Flicker Frequency Test, Min ([1]; 550 mg BID, Day 140): 27 Hz | Critical Flicker Frequency Test, Max ([1]; 550 mg BID, EOT): 49 Hz | Critical Flicker Frequency Test, Median ([1]; 550 mg BID, EOT): 37.8 Hz | Critical Flicker Frequency Test, Min ([1]; 550 mg BID, EOT): 25 Hz | Mean changes (±SD) in CFF results ([1]; first study, rifaximin group, baseline to end of treatment): 0.945 (±4.75) | Subjects with total number of HE episodes during the study: 1, % [2, 7]: (14.3) % | Subjects with total number of HE episodes during the study: 2, % [2, 7]: (8.6) % | Subjects with total number of HE episodes during the study: 4, % [2, 7]: (1.4) % | Subjects with total number of HE episodes during the study: 6, % [2, 7]: (1.4) % | Subjects with ≥1 breakthrough overt HE episode, % [2, 7]: (25.7) % | Subjects with total number of HE episodes during the study: 1, % [2, 8]: (17.3) % | Subjects with total number of HE episodes during the study: 2, % [2, 8]: (6.1) % | Subjects with total number of HE episodes during the study: 3, % [2, 8]: (2.0) % | Subjects with total number of HE episodes during the study: 4, % [2, 8]: (0.5) % | Subjects with total number of HE episodes during the study: 5, % [2, 8]: (0.5) % | Subjects with total number of HE episodes during the study: 10, % [2, 8]: (1.0) % | Subjects with ≥1 breakthrough overt HE episode, % [2, 8]: (27.6) % | Subjects with total number of HE episodes during the study: 1, value in parentheses [2, 9]: (16.5) 90 | Subjects with total number of HE episodes during the study: 2, value in parentheses [2, 9]: (6.8) 90 | Subjects with total number of HE episodes during the study: 3, value in parentheses [2, 9]: (1.5) 90 | Subjects with total number of HE episodes during the study: 4, value in parentheses [2, 9]: (0.8) 90 | Subjects with total number of HE episodes during the study: 5, value in parentheses [2, 9]: (0.4) 90 | Subjects with total number of HE episodes during the study: 6, value in parentheses [2, 9]: (0.4) 90 | Subjects with total number of HE episodes during the study: 10, value in parentheses [2, 9]: (0.8) 90 | Subjects with ≥1 breakthrough overt HE episode, value in parentheses [2, 9]: (27.1) 90 | reduction in risk of breakthrough overt HE during rifaximin treatment vs prior placebo experience [2, 10]: 70% | subjects with breakthrough overt HE during rifaximin treatment (of 82) [2, 10]: 15 | subjects with 3 or more breakthrough HE episodes ([2]; second study): Ten | proportion of subjects with breakthrough overt HE [2, 11]: 27.1% | subjects with breakthrough overt HE (of 266) [2, 11]: 72 | proportion of subjects with breakthrough overt HE [2, 12]: 25.7% | subjects with breakthrough overt HE (of 70) [2, 12]: 18 | proportion of subjects with breakthrough overt HE [2, 13]: 27.6% | subjects with breakthrough overt HE (of 196) [2, 13]: 54 | all cause hospitalization rate [3]: 0.60 event/PEY | subjects hospitalized due HE episodes (HE-caused) [3]: 59 | subjects hospitalized for any cause (of 266) ([3]; all rifaximin): 133 | subjects hospitalized for any cause ([3]; continuing rifaximin group): 35 | subjects hospitalized for any cause ([3]; new rifaximin group): 98 | subjects with worsening of Conn score by 1 or 2 grades ([4]; 24/266 subjects): 9.0% | incidence of worsening asterixis grades ([4]; continuing rifaximin group, 6/70 subjects): 8.6% | subjects with 2-grade improvement in asterixis among those entering with scores of 1, 2 or 3 ([4]; last visit, 4 subjects of 67): 6.0% | subjects with 3-grade improvement in asterixis among those entering with scores of 1, 2 or 3 ([4]; last visit, 5 subjects of 67): 7.5% | subjects with 2-grade improvement in Conn score among those entering with Conn 1, 2, or 3 ([4]; last visit, 7 subjects of 84): 8.3% | subjects with 1-grade improvement in Conn score among those entering with Conn 1, 2, or 3 ([4]; last visit, 47 subjects of 84): 56.0% | incidence of worsening asterixis grades ([4]; new rifaximin group, 12/196 subjects): 6.1% | hospitalizations reported for the group [5]: 3 | Cmax (clinical): 52.2 ng/mL and 66.4 nM | fraction unbound (in vitro): 0.447
